Values joined by “and” are separate entries in the source; they are usually repeats but may differ in a detail not shown here. Equal entries are not always repeated. ± gives the expanded uncertainty stated by the source.
Legend:
[1] = Liquid, Capillary tube (Ostwald / Ubbelohde) method
[2] = xn = mol fraction of the nth substance listed; conditions: Liquid, Capillary tube (Ostwald / Ubbelohde) method

CCCCCCCCCCCC [dodecane]
[1], 5000 kPa
Conditions	viscosity
303.2 K	1.334 ± 0.017 mPa·s and 1.314 ± 0.014 mPa·s
313.2 K	1.122 ± 0.016 mPa·s and 1.116 ± 0.013 mPa·s
323 K	0.97 ± 0.014 mPa·s and 0.9626 ± 0.011 mPa·s
333.1 K	0.8519 ± 0.013 mPa·s and 0.8434 ± 0.0096 mPa·s
343.3 K	0.7442 ± 0.013 mPa·s and 0.7445 ± 0.0087 mPa·s
353.3 K	0.6736 ± 0.012 mPa·s and 0.6661 ± 0.0081 mPa·s
363.2 K	0.6075 ± 0.012 mPa·s and 0.5969 ± 0.0076 mPa·s
373.3 K	0.5467 ± 0.012 mPa·s and 0.5397 ± 0.0073 mPa·s
383.2 K	0.4902 ± 0.011 mPa·s and 0.4913 ± 0.007 mPa·s
393.2 K	0.4472 ± 0.011 mPa·s and 0.448 ± 0.0068 mPa·s
403.2 K	0.4112 ± 0.011 mPa·s and 0.4118 ± 0.0066 mPa·s
413.2 K	0.3785 ± 0.011 mPa·s and 0.3799 ± 0.0064 mPa·s
423.2 K	0.3508 ± 0.011 mPa·s and 0.3516 ± 0.0063 mPa·s
433.2 K	0.3277 ± 0.011 mPa·s and 0.3259 ± 0.0062 mPa·s
443.4 K	0.2974 ± 0.011 mPa·s and 0.3041 ± 0.0062 mPa·s
453.1 K	0.2822 ± 0.011 mPa·s and 0.2827 ± 0.0061 mPa·s
463.2 K	0.2604 ± 0.011 mPa·s and 0.2619 ± 0.0061 mPa·s
473.2 K	0.244 ± 0.011 mPa·s and 0.244 ± 0.006 mPa·s
483.1 K	0.225 ± 0.011 mPa·s and 0.2259 ± 0.006 mPa·s
493.2 K	0.2076 ± 0.011 mPa·s and 0.2072 ± 0.0059 mPa·s
503.2 K	0.1964 ± 0.011 mPa·s and 0.1969 ± 0.0059 mPa·s
513.1 K	0.1846 ± 0.011 mPa·s and 0.1835 ± 0.0059 mPa·s
523.2 K	0.1722 ± 0.011 mPa·s and 0.1698 ± 0.0059 mPa·s
533.1 K	0.1608 ± 0.011 mPa·s and 0.1591 ± 0.0058 mPa·s
543.2 K	0.1489 ± 0.011 mPa·s and 0.1487 ± 0.0058 mPa·s
553.2 K	0.1375 ± 0.011 mPa·s and 0.1391 ± 0.0058 mPa·s
563.2 K	0.1297 ± 0.011 mPa·s and 0.1305 ± 0.0058 mPa·s
573.2 K	0.1201 ± 0.011 mPa·s and 0.1221 ± 0.0058 mPa·s
583.3 K	0.1126 ± 0.011 mPa·s and 0.1141 ± 0.0058 mPa·s
593.2 K	0.1031 ± 0.011 mPa·s and 0.1064 ± 0.0057 mPa·s
603.2 K	0.0974 ± 0.011 mPa·s and 0.0987 ± 0.0057 mPa·s
613.2 K	0.0913 ± 0.011 mPa·s and 0.0915 ± 0.0057 mPa·s
623.1 K	0.0839 ± 0.011 mPa·s and 0.0849 ± 0.0057 mPa·s
633.2 K	0.0767 ± 0.011 mPa·s and 0.0786 ± 0.0057 mPa·s
643.1 K	0.0694 ± 0.011 mPa·s and 0.0714 ± 0.0057 mPa·s
653.2 K	0.0657 ± 0.011 mPa·s and 0.065 ± 0.0057 mPa·s
663.2 K	0.0605 ± 0.011 mPa·s and 0.0605 ± 0.0057 mPa·s
673.2 K	0.0551 ± 0.011 mPa·s and 0.0548 ± 0.0057 mPa·s

CCCCCCCC [octane]
[1], 3100 kPa
Conditions	viscosity
303.2 K	0.4913 ± 0.0058 mPa·s and 0.4948 ± 0.0048 mPa·s
313.3 K	0.4426 ± 0.0057 mPa·s and 0.4431 ± 0.0046 mPa·s
323.2 K	0.3961 ± 0.0053 mPa·s and 0.3979 ± 0.0042 mPa·s
333.2 K	0.3634 ± 0.0051 mPa·s and 0.3617 ± 0.0038 mPa·s
343.2 K	0.3311 ± 0.005 mPa·s and 0.3308 ± 0.0036 mPa·s
353.1 K	0.3013 ± 0.0048 mPa·s and 0.3032 ± 0.0035 mPa·s
363.2 K	0.2765 ± 0.0047 mPa·s and 0.2775 ± 0.0033 mPa·s
373.3 K	0.254 ± 0.0046 mPa·s and 0.258 ± 0.0032 mPa·s
383 K	0.234 ± 0.0045 mPa·s and 0.2379 ± 0.0031 mPa·s
393.1 K	0.2205 ± 0.0045 mPa·s and 0.2202 ± 0.003 mPa·s
403.2 K	0.2019 ± 0.0044 mPa·s and 0.204 ± 0.0029 mPa·s
413.2 K	0.1905 ± 0.0044 mPa·s and 0.1902 ± 0.0028 mPa·s
423.2 K	0.1761 ± 0.0044 mPa·s and 0.1775 ± 0.0028 mPa·s
433.1 K	0.1643 ± 0.0043 mPa·s and 0.1642 ± 0.0027 mPa·s
443.2 K	0.1526 ± 0.0043 mPa·s and 0.1514 ± 0.0026 mPa·s
453.1 K	0.1417 ± 0.0043 mPa·s and 0.1428 ± 0.0026 mPa·s
463.2 K	0.1321 ± 0.0043 mPa·s and 0.1318 ± 0.0026 mPa·s
473.1 K	0.1228 ± 0.0042 mPa·s and 0.1241 ± 0.0025 mPa·s
483.1 K	0.1138 ± 0.0042 mPa·s and 0.1152 ± 0.0025 mPa·s
493.1 K	0.1068 ± 0.0042 mPa·s and 0.1072 ± 0.0025 mPa·s
503 K	0.0993 ± 0.0042 mPa·s and 0.0983 ± 0.0025 mPa·s
513.2 K	0.0901 ± 0.0042 mPa·s and 0.0904 ± 0.0024 mPa·s
523.3 K	0.0825 ± 0.0042 mPa·s and 0.0826 ± 0.0024 mPa·s
533.4 K	0.0753 ± 0.0041 mPa·s and 0.0751 ± 0.0024 mPa·s
543.4 K	0.0678 ± 0.0041 mPa·s and 0.0678 ± 0.0024 mPa·s
553.4 K	0.0607 ± 0.0041 mPa·s and 0.0609 ± 0.0024 mPa·s
563.3 K	0.0532 ± 0.0041 mPa·s and 0.0534 ± 0.0024 mPa·s
573.3 K	0.0444 ± 0.0041 mPa·s and 0.0446 ± 0.0024 mPa·s
583.1 K	0.0325 ± 0.0041 mPa·s and 0.0323 ± 0.0024 mPa·s

CCCCCCCC [octane] + CCCCCCC
viscosity, [2]
Conditions	100 kPa	5000 kPa
303.5 K, x2 = 0.255	0.4422 ± 0.011 mPa·s and 0.4417 ± 0.0058 mPa·s	–
303.5 K, x2 = 0.51	0.4149 ± 0.011 mPa·s and 0.413 ± 0.0057 mPa·s	0.4362 ± 0.011 mPa·s and 0.4357 ± 0.0057 mPa·s
303.9 K, x2 = 0.255	–	0.4663 ± 0.011 mPa·s and 0.4658 ± 0.0058 mPa·s
305.7 K, x2 = 0.759	0.3798 ± 0.011 mPa·s and 0.3784 ± 0.0055 mPa·s	0.4032 ± 0.011 mPa·s and 0.4029 ± 0.0055 mPa·s
333.5 K, x2 = 0.51	0.3011 ± 0.01 mPa·s and 0.3026 ± 0.0053 mPa·s	–
333.8 K, x2 = 0.255	0.3234 ± 0.011 mPa·s and 0.3228 ± 0.0054 mPa·s	–
335.6 K, x2 = 0.759	0.2815 ± 0.01 mPa·s and 0.2806 ± 0.0052 mPa·s	–
363.4 K, x2 = 0.255	0.2447 ± 0.01 mPa·s and 0.2464 ± 0.0051 mPa·s	–
363.4 K, x2 = 0.51	0.2329 ± 0.01 mPa·s and 0.2323 ± 0.005 mPa·s	–
364.6 K, x2 = 0.759	0.2164 ± 0.01 mPa·s and 0.2169 ± 0.005 mPa·s	–
373.2 K, x2 = 0.255	–	0.2415 ± 0.01 mPa·s and 0.2402 ± 0.0051 mPa·s
373.2 K, x2 = 0.759	–	0.2181 ± 0.01 mPa·s and 0.2175 ± 0.005 mPa·s
373.6 K, x2 = 0.51	–	0.2277 ± 0.01 mPa·s and 0.2275 ± 0.0051 mPa·s
413.7 K, x2 = 0.51	–	0.1702 ± 0.01 mPa·s and 0.1698 ± 0.0048 mPa·s
413.9 K, x2 = 0.255	–	0.1792 ± 0.01 mPa·s and 0.1801 ± 0.0048 mPa·s
424.4 K, x2 = 0.759	–	0.1497 ± 0.01 mPa·s and 0.1493 ± 0.0048 mPa·s
472.5 K, x2 = 0.759	–	0.1071 ± 0.01 mPa·s and 0.1075 ± 0.0047 mPa·s
473.4 K, x2 = 0.51	–	0.1124 ± 0.01 mPa·s and 0.1125 ± 0.0047 mPa·s
473.5 K, x2 = 0.255	–	0.1186 ± 0.01 mPa·s and 0.1184 ± 0.0047 mPa·s

— the NIST ThermoML archive (doi:10.1021/acs.jced.6b00391)
